According to patent US20040029254A1, “Method of screening anti-bacterial agents for effectiveness in treating persistant intracellular infections” (University of Washington, priority 2002, published 2004):
≈ marks a conversion by molar mass, not a printed value. Where “and” joins values, the source holds several entries; their conditions need not be identical. Equal entries are not always repeated. Where two headings read alike, the source gives them in different places.

Key:
Type in all cases: cell-based
[1] = tested on: C. trachomatis serovar D strain; assay: Comparison of MIC, MCC, MCC3 and MCC3/MIC ratio in McCoy cells; conditions: for MIC: Chlamydia trachomatis
[2] = tested on: C. pneumoniae TW-183, CWL-029; assay: Anti-bacterial susceptibilities of reference strains; conditions: for MIC: Chlamydia pneumoniae, HEp-2 cells, read-out: MIC (microtiter)
[3] = tested on: Chlamydia trachomatis clinical isolates; assay: Anti-bacterial susceptibilities of clinical isolates; conditions: for MIC: Chlamydia trachomatis, read-out: MIC (microtiter)
[4] = tested on: C. trachomatis L2 (LGV serovar); assay: Anti-bacterial susceptibilities of reference strains; conditions: Chlamydia trachomatis; McCoy cells; read-out: MIC (microtiter)
[5] = tested on: C. trachomatis MoPn (mouse pneumonitis strain); assay: as above; conditions: Chlamydia trachomatis; McCoy cells; read-out: MIC (microtiter)
C. psittaci 6BC, GPIC = assay: microbe, parasite or virus in culture; conditions: Chlamydia psittaci, read-out: MIC (microtiter)
[6] = tested on: clinical isolates of C. trachomatis; assay: microbe, parasite or virus in culture
[7] = tested on: C. trachomatis B,D,E,F,G,H,I,Ia,J,K (human genital serovars); assay: Anti-bacterial susceptibilities of reference strains; conditions: Chlamydia trachomatis; McCoy cells; read-out: MIC (microtiter)
[8] = tested on: C. trachomatis serovar D (strain UW-3); assay: Effect of inoculum size on doxycycline MIC, MCC and MCC3
[9] = tested on: Chlamydia trachomatis serovar D; assay: microbe, parasite or virus in culture
[10] = CDC strains sensitive controls (n = 2), McCoy cells
[11] = CDC strains treatment failures (n = 2), McCoy cells
[12] = Recurrent same serovar isolates (n = 6), McCoy cells
[13] = Single isolates (n = 30), McCoy cells
[14] = Treatment failure isolates (n = 6), McCoy cells
[15] = inoculum 0.3125 × 10^3 IFU/well
[16] = CDC strains treatment failures (n = 2), multi-drug resistant at CDC, McCoy cells

CC[C@H]1OC(=O)[C@H](C)[C@@H](O[C@H]2C[C@@](C)(OC)[C@@H](O)[C@H](C)O2)[C@H](C)[C@@H](O[C@@H]2O[C@H](C)C[C@H](N(C)C)[C@H]2O)[C@](C)(O)C[C@@H](C)CN(C)[C@H](C)[C@@H](O)[C@]1(C)O [Azithromycin, azithromycin]
MCC ([1]; McCoy cells): 8 µg/mL | MCC3 ([1]; McCoy cells): 64 µg/mL | MCC1 (shell vial) [2]: 4 to 8 µg/mL | MCC3 (shell vial) [2]: 64 µg/mL | MCC (microtiter) [2]: 0.25 µg/mL | MCC3 (shell vial) [3, 10]: 64 µg/mL | MCC (microtiter) [3, 10]: 0.25 to 0.5 µg/mL | MCC (shell vial) [3, 10]: >8 µg/mL | MCC3 (shell vial) [3, 11]: 64 µg/mL | MCC (microtiter) [3, 11]: 0.25 to 0.5 µg/mL | MCC (shell vial) [3, 11]: >8 µg/mL | MCC3 (shell vial) [3, 12]: 64 µg/mL | MCC (microtiter) [3, 12]: 0.25 to 0.5 µg/mL | MCC (shell vial) [3, 12]: >8 µg/mL | MCC3 (shell vial) [3, 13]: 64 µg/mL | MCC (microtiter) [3, 13]: 0.25 to 0.5 µg/mL | MCC (shell vial) [3, 13]: >8 µg/mL | MCC3 (shell vial) [3, 14]: 64 µg/mL | MCC (microtiter) [3, 14]: 0.25 to 0.5 µg/mL | MCC (shell vial) [3, 14]: >8 µg/mL

C[C@H]1c2cccc(O)c2C(=O)C2=C(O)[C@]3(O)C(=O)C(C(N)=O)=C(O)[C@@H](N(C)C)[C@@H]3[C@@H](O)[C@@H]21 [Doxycycline, doxycycline]
MIC [4]: 64 ng/mL (≈ 144 nM) | MCC3/MIC [1]: 1000 | MIC ([1]; McCoy cells, read-out: MIC): 64 ng/mL | MCC ([1]; McCoy cells): 8 µg/mL | MCC3 ([1]; McCoy cells): 64 µg/mL | MIC [5]: 64 ng/mL (≈ 144 nM) | MIC (C. psittaci 6BC, GPIC): 64 ng/mL (≈ 144 nM) | MCC1 (shell vial) [2]: 4 to 8 µg/mL | MCC3 (shell vial) [2]: 32 to 64 µg/mL | MCC (microtiter) [2]: 0.125 µg/mL | MIC [2]: 64 ng/mL (≈ 144 nM) | MCC3/MIC [6]: 1000 | MIC ([6]; Chlamydia trachomatis): 64 to 125 ng/mL (≈ 144 to 281 nM) | MIC [7]: 64 ng/mL (≈ 144 nM) | MIC ([8]; Chlamydia trachomatis, inoculum 80 × 10^3 IFU/well, read-out: MIC): 64 ng/mL (≈ 144 nM) | MCC [8, 15]: 0.064 µg/mL | MCC3 [8, 15]: 0.064 µg/mL | MIC [8, 15]: 64 ng/mL (≈ 144 nM) | MCC ([8]; inoculum 0.625 × 10^3 IFU/well): 0.064 µg/mL | MCC3 ([8]; inoculum 0.625 × 10^3 IFU/well): 0.064 µg/mL | MIC ([8]; inoculum 0.625 × 10^3 IFU/well): 64 ng/mL (≈ 144 nM) | MCC ([8]; inoculum 5 × 10^3 IFU/well): >8 µg/mL | MCC3 ([8]; inoculum 5 × 10^3 IFU/well): 64 µg/mL | MIC ([8]; inoculum 5 × 10^3 IFU/well): 64 ng/mL (≈ 144 nM) | MCC ([8]; inoculum 10 × 10^3 IFU/well): >8 µg/mL | MCC3 ([8]; inoculum 10 × 10^3 IFU/well): 64 µg/mL | MIC ([8]; inoculum 10 × 10^3 IFU/well): 64 ng/mL (≈ 144 nM) | MCC ([8]; inoculum 20 × 10^3 IFU/well): >8 µg/mL | MCC3 ([8]; inoculum 20 × 10^3 IFU/well): 64 µg/mL | MIC ([8]; inoculum 20 × 10^3 IFU/well): 64 ng/mL (≈ 144 nM) | MCC ([8]; inoculum 40 × 10^3 IFU/well): >8 µg/mL | MCC3 ([8]; inoculum 40 × 10^3 IFU/well): 64 µg/mL | MIC ([8]; inoculum 40 × 10^3 IFU/well): 64 ng/mL (≈ 144 nM) | MCC ([8]; inoculum 80 × 10^3 IFU/well): >8 µg/mL | MCC3 ([8]; inoculum 80 × 10^3 IFU/well): 64 µg/mL | MCC ([8]; inoculum 160 × 10^3 IFU/well): >8 µg/mL | MCC3 ([8]; inoculum 160 × 10^3 IFU/well): 64 µg/mL | MIC ([8]; inoculum 160 × 10^3 IFU/well): 64 ng/mL (≈ 144 nM) | MCC ([8]; inoculum 320 × 10^3 IFU/well): >8 µg/mL | MCC3 ([8]; inoculum 320 × 10^3 IFU/well): 64 µg/mL | MIC ([8]; inoculum 320 × 10^3 IFU/well): 64 ng/mL (≈ 144 nM) | MCC ([8]; inoculum […] 10^3 IFU/well): 0.064 µg/mL | MCC3 ([8]; inoculum […] 10^3 IFU/well): 0.064 µg/mL | MIC ([8]; inoculum […] 10^3 IFU/well): 64 ng/mL (≈ 144 nM) | MCC3 (shell vial) [3, 10]: 16 to 64 µg/mL | MCC (microtiter) [3, 10]: 0.125 to 0.25 µg/mL | MCC (shell vial) [3, 10]: >8 µg/mL | MIC (microtiter) [3, 10]: 64 to 125 ng/mL | MIC (microtiter) [3, 16]: 64 to 125 ng/mL | MCC3 (shell vial) [3, 11]: 16 to 64 µg/mL | MCC (microtiter) [3, 11]: 0.125 to 0.25 µg/mL | MCC (shell vial) [3, 11]: >8 µg/mL | MIC [3]: 64 to 125 ng/mL (≈ 144 to 281 nM) | MCC3 (shell vial) [3, 12]: 16 to 64 µg/mL | MCC (microtiter) [3, 12]: 0.125 to 0.25 µg/mL | MCC (shell vial) [3, 12]: >8 µg/mL | MCC3 (shell vial) [3, 13]: 16 to 64 µg/mL | MCC (microtiter) [3, 13]: 0.125 to 0.25 µg/mL | MCC (shell vial) [3, 13]: >8 µg/mL | MIC (microtiter) [3, 13]: 64 to 125 ng/mL | MCC3 (shell vial) [3, 14]: 16 to 64 µg/mL | MCC (microtiter) [3, 14]: 0.125 to 0.25 µg/mL | MCC (shell vial) [3, 14]: >8 µg/mL | MIC (microtiter) [3, 14]: 64 to 125 ng/mL

CC[C@H]1OC(=O)[C@H](C)[C@@H](O[C@H]2C[C@@](C)(OC)[C@@H](O)[C@H](C)O2)[C@H](C)[C@@H](O[C@@H]2O[C@H](C)C[C@H](N(C)C)[C@H]2O)[C@](C)(O)C[C@@H](C)C(=O)[C@H](C)[C@@H](O)[C@]1(C)O [Erythromycin, erythromycin]
MIC ([1]; McCoy cells, read-out: MIC): 500 ng/mL | MCC ([1]; McCoy cells): 8 µg/mL

CCCN1CCN(c2cc(O)c3nc4c5c6c7c(C)c(O)c5c(=O)c(c-4oc3c2)NC(=O)/C(C)=C\C=C\[C@H](C)[C@H](O)[C@@H](C)[C@@H](O)[C@@H](C)[C@H](OC(C)=O)[C@H](C)[C@@H](OC)/C=C/O[C@@](C)(O7)C6=O)CC1 [KRM-1657]
MCC3/MIC [6]: 16 | MIC [6]: 0.064 to 0.125 ng/mL | anti-chlamydial activity in words [6]: highly active

CC1COc2c(N3CCN(C)CC3)c(F)cc3c(=O)c(C(=O)O)cn1c23 (stereo not drawn) [Ofloxacin, ofloxacin]
MIC [4]: 500 ng/mL (≈ 1380 nM) | MCC3 [1]: 128 µg/mL | MCC3/MIC [1]: 128 | MIC ([1]; McCoy cells, read-out: MIC): 1000 ng/mL | MCC ([1]; McCoy cells): 16 µg/mL | MIC [5]: 500 ng/mL (≈ 1380 nM) | MCC [9]: >8 µg/mL and 4 µg/mL and 8 µg/mL | MIC (C. psittaci 6BC, GPIC): 500 ng/mL (≈ 1380 nM) | MCC1 (shell vial) [2]: >8 µg/mL | MCC3 (shell vial) [2]: >128 µg/mL | MCC (microtiter) [2]: 1.0 µg/mL | MIC [2]: 500 ng/mL (≈ 1380 nM) | MCC3/MIC [6]: 128 | MIC ([6]; Chlamydia trachomatis): 1000 to 2000 ng/mL (≈ 2770 to 5530 nM) | MIC [7]: 500 ng/mL (≈ 1380 nM) | MCC3 (shell vial) [3, 10]: >128 µg/mL | MCC (microtiter) [3, 10]: 1 to 2 µg/mL | MCC (shell vial) [3, 10]: >8 µg/mL | MIC (microtiter) [3, 10]: 500 to 1000 ng/mL | MIC (microtiter) [3, 16]: 500 to 1000 ng/mL | MCC3 (shell vial) [3, 11]: >128 µg/mL | MCC (microtiter) [3, 11]: 1 to 2 µg/mL | MCC (shell vial) [3, 11]: >8 µg/mL | MIC [3, 12]: 500 to 1000 ng/mL (≈ 1380 to 2770 nM) | MCC3 (shell vial) [3, 12]: >128 µg/mL | MCC (microtiter) [3, 12]: 1 to 2 µg/mL | MCC (shell vial) [3, 12]: >8 µg/mL | MCC3 (shell vial) [3, 13]: >128 µg/mL | MCC (microtiter) [3, 13]: 1 to 2 µg/mL | MCC (shell vial) [3, 13]: >8 µg/mL | MIC (microtiter) [3, 13]: 500 to 1000 ng/mL | MCC3 (shell vial) [3, 14]: >128 µg/mL | MCC (microtiter) [3, 14]: 1 to 2 µg/mL | MCC (shell vial) [3, 14]: >8 µg/mL | MIC (microtiter) [3, 14]: 500 to 1000 ng/mL

CO[C@H]1/C=C/O[C@@]2(C)Oc3c(C)c(O)c4c(=O)c(c5oc6cc(N7CCN(CC(C)C)CC7)cc(O)c6nc-5c4c3C2=O)NC(=O)/C(C)=C\C=C\[C@H](C)[C@H](O)[C@@H](C)[C@@H](O)[C@@H](C)[C@H](OC(C)=O)[C@@H]1C [Rifalazil, rifalazil]
MCC3/MIC [1]: 16 | MIC ([1]; McCoy cells, read-out: MIC): 0.25 ng/mL | MCC ([1]; McCoy cells): 0.002 µg/mL | MCC3 ([1]; McCoy cells): 0.004 µg/mL | anti-chlamydial activity in words ([1]; McCoy cells, compared with other drugs): highly active | MCC3/MIC [6]: 16 | anti-chlamydial activity in words [6]: highly active | MIC ([6]; Chlamydia trachomatis): 0.25 to 5 ng/mL (≈ 0.266 to 5.31 nM)

CO[C@H]1/C=C/O[C@@]2(C)Oc3c(C)c(O)c4c(O)c(c(/C=N/N5CCN(C)CC5)c(O)c4c3C2=O)NC(=O)/C(C)=C\C=C\[C@H](C)[C@H](O)[C@@H](C)[C@@H](O)[C@@H](C)[C@H](OC(C)=O)[C@@H]1C [Rifampin, rifampin]
MIC ([1]; McCoy cells, read-out: MIC): 16 ng/mL | MCC ([1]; McCoy cells): 0.5 µg/mL | MCC3 ([1]; McCoy cells): 4 µg/mL | MCC3/MIC ([1]; McCoy cells): 250

CN(C)[C@@H]1C(O)=C(C(N)=O)C(=O)[C@@]2(O)C(O)=C3C(=O)c4c(O)cccc4[C@@](C)(O)[C@H]3C[C@@H]12 [Tetracycline, tetracycline]
MCC [1]: 16 µg/mL | MCC3 [1]: 128 µg/mL | MCC3/MIC [1]: 128 | MIC [1]: 250 ng/mL | MIC ([9]; Chlamydia trachomatis): 250 ng/mL (≈ 563 nM)
